Data set [1] deals with SKN-SH doxorubicin-resistant cells. In words: Viable cell count of SKN-SH doxorubicin-resistant cells with other chemotherapeutic agents. Conditions: Homo sapiens, SK-N-SH, 72 h; for viability at 100 µM: read-out: number of viable cells, chemotherapeutic agent alone at 10^−4 M; for viability at 10 µM: read-out: number of viable cells, chemotherapeutic agent alone at 10^−5M; for viability at 1 µM: read-out: number of viable cells, chemotherapeutic agent alone at 10^−6 M; for viability at 0.1 µM: read-out: number of viable cells, chemotherapeutic agent alone at 10^−7M; for viability at 0.01 µM: read-out: number of viable cells, chemotherapeutic agent alone at 10^−8M. As to the method:
SHN-SH cells were prepared in the manner described above. […] Viable cells were counted after 72 hours of incubation with the melphalan, etoposide, mitoxantrone, cyclophosphamide, and tamoxifen.

In a further data set the target is T1, Purified cathepsin L (Homo sapiens, UniProt P07711).
T1 construct: purchased Biomol, Plymouth Meeting, Pa
In words: Cathepsin L activity, fluorogenic substrate (CV-Cathepsin L Detection Kit). It counts as biochemical. Conditions: inhibitor 10 μM, 200 ng cathepsin L; positive control 4e+5 AU, negative control 0.75e+5 AU. As to the method: Cathepsin L activity was measured using a commercially available kit according to the manufacturer's procedure (CV-Cathepsin L Detection Kit; Biomol, Plymouth Meeting, Pa.). Purified cathepsin L (Biomol, Plymouth Meeting, Pa.) (200 ng) was incubated with each inhibitor (10 μM) in a 96 well plate for 15 min at room temperature in 100 μl of reaction buffer (100 mM sodium acetate pH 5, 1 mM EDTA (ethylenediaminetetraacetic acid), and 4 mM dithiothreitol). The protease inhibitors tested were: lactacystin and inhibitors of cathepsin L, B, S, and K. 100 μl of a fluorogenic substrate (CV-Cathepsin L Detection Kit; Biomol, Plymouth Meeting, Pa.) were added and incubated for an additional 30 min at room temperature. Fluorescence was measured in a plate reader (Victor Multilabel Counter, Perkin Elmer) at 380 nm excitation and […] emission wavelengths.

For the next data set, the system named is SKN-SH/R cells. Kind of data set: MTT cytotoxicity assay, doxorubicin-resistant neuroblastoma cells. It counts as cell-based. The conditions noted are these: Homo sapiens, SK-N-SH, 96 h, read-out: IC50 (concentration at which 50% of cells remained viable) of the cytotoxic agent alone, SKN-SH/R cells, agent alone (control cells), 96 hours, MTT. As to the method: (§1) Human neuroblastoma SKN-SH cells (ATCC Cat. No. HTB-11) were cultured in Dulbecco's Modified Eagles Medium (DMEM; Gibco, Grand Island, N.Y.) supplemented with 10% fetal bovine serum (FBS; Sigma-Aldrich, St. Louis, Mo.) at 37° C. in a 95% Air/5% CO2 atmosphere. Resistant cells to doxorubicin (SKN-SH/R) were selected by stepwise exposure to drug concentrations ranging from 10^−9 M through 10^−6 M over a time period of three months. The resulting cell line was subjected to treatment with the doxorubicin alone or in combination with: proteosome inhibitor (Lactacystin), cathepsin B inhibitor (L-3-trans-(Propylcarbamoyl)oxirane-2-carbonyl]-L-isoleucyl-L praline), cathespin L inhibitor (Z-Phe-Tyr(t-Bu)-diazomethylketone), cathespin K inhibitor (1,3-Bis(N-CBZ-Leu-NH)-2-propanonel,3 -Di(N-carbonbenzoyloxy-L-leucyl)amino acetone), or cathespin S inhibitor (Z-Phe-Leu-COCHO.H2O), (all available from Calbiochem-Novabiochem, San Diego) at 10 μM each to determine whether they affect cell response to doxorubicin.
(§2) Cytotoxic activity of doxorubicin and cysteine protease inhibitors were quantitatively determined by a calorimetric assay utilizing 3-(4,5-dimethyl-2-thiazolyl) 2,5-diphenyl tetrazolium bromide (MTT; Sigma-Aldrich, St. Louis, Mo.). […] The optical density of this solution was measured at 570 nm and the percentage of viable cells estimated by comparison with untreated control cells. […]

For another data set, the system named is SKN-SH wild type cells. Kind of data set: MTT cytotoxicity assay, SKN-SH wild type cells. It counts as cell-based. The conditions noted are these: Homo sapiens, SK-N-SH, 96 h, read-out: IC50 of the cytotoxic agent alone. The method, then:
as §1, §2

The next data set deals with cathepsin L. In words: Cathepsin L expression by Western blot in siRNA-transfected Saos2-R cells. It counts as cell-based, human. The text has this:
The human cathepsin L siRNA was designed in our laboratory by studying a cDNA sequence of the human cathepsin L gene (SEQ ID NO: 2). We selected a segment defined by nucleotide numbers 91-111, sent that sequence to a contract laboratory (Dharmacon, Lafayette, Colo.), which synthesized an siRNA molecule based on the aforementioned segment. The segment of the human cathepsin L cDNA we used was: […] (91-111) (SEQ ID NO: 2). On the day before transfection, 3×10^5 drug resistant osteosarcoma cells (Saos2-R) were seeded in 6-well plates and grown in 2.5 ml of DMEM supplemented with 10% FBS. After 24 hours in culture, 25 μl of 20 μM stock solution of siRNA duplexes were transfected into cells with GeneSilencer™ SiRNA Transfection Reagent Kit (Gene Therapy Systems, Inc., San Diego, Calif.). Briefly, adherent cells were transfected in 6 well plates. Cells were about 70% confluent. In one tube, 5 μl of GeneSilencer™ was mixed with 25 μl of serum free medium. In a second tube, 25 μl of siRNA diluent was mixed with […] of serum free medium and 20 μl of siRNA (100 nM). After incubation of tubes 1 and 2, at room temperature for 5 min, they were mixed together into tube 3 and incubated for an additional 5 min. […] The cells were counted and protein lysates were used to detect cathepsin L expression by Western blot as described above.

Data set [2] concerns drug resistant osteosarcoma cells (Saos2-R). In words: Cell count of drug resistant osteosarcoma cells after siRNA or inhibitor and doxorubicin. The format is cell-based. An excerpt: The human cathepsin L siRNA was designed in our laboratory by studying a cDNA sequence of the human cathepsin L gene (SEQ ID NO: 2). We selected a segment defined by nucleotide numbers 91-111, sent that sequence to a contract laboratory (Dharmacon, Lafayette, Colo.), which synthesized an siRNA molecule based on the aforementioned segment. The segment of the human cathepsin L cDNA we used was: […] (91-111) (SEQ ID NO: 2). On the day before transfection, 3×10^5 drug resistant osteosarcoma cells (Saos2-R) were seeded in 6-well plates and grown in 2.5 ml of DMEM supplemented with 10% FBS. After 24 hours in culture, 25 μl of 20 μM stock solution of siRNA duplexes were transfected into cells with GeneSilencer™ SiRNA Transfection Reagent Kit (Gene Therapy Systems, Inc., San Diego, Calif.). Briefly, adherent cells were transfected in 6 well plates. Cells were about 70% confluent. In one tube, 5 μl of GeneSilencer™ was mixed with 25 μl of serum free medium. In a second tube, 25 μl of siRNA diluent was mixed with […] of serum free medium and 20 μl of siRNA (100 nM). After incubation of tubes 1 and 2, at room temperature for 5 min, they were mixed together into tube 3 and incubated for an additional 5 min. The content of tube 3 was added to the cells in the 6 well plates and incubated for 2 days before the addition of the drug. After 48 hours of incubation, doxorubicin (10^−5 M) was added and maintained in culture for an additional 48 hours before analysis. The cells were counted and protein lysates were used to detect cathepsin L expression by Western blot as described above.

The test system of data set [3] is Doxorubicin resistant human neuroblastoma cells (SKN-SH/R). Kind of data set: Tumor growth of SKN-SH/R cells injected into nude mice. It counts as in vivo. The method, then: Doxorubicin resistant human neuroblastoma cells (SKN-SH/R) cells grown into 75 cm^2 flasks were harvested by trypsinization and centrifuged to remove trypsin. The pellet was then reconstituted in culture medium at 10^7 cell/ml. On day one, 100 μl (10^6 cells) were injected to the right flank of nude mice (5 per group) and after the tumor became palpable at day 11, mice were assigned to four groups: 1) controls (treated with the vehicle DMSO), 2) Dox. 1.5 mg/kg (treated with doxorubicin alone 1.5 mg/Kg), 3) iCL 30 mg/Kg (treated with cathepsin L inhibitor alone at 30 mg/Kg), and 4) Dox 1.5 mg/Kg+iCL 30 mg/Kg (treated with the combination of doxorubicin 1.5 mg/Kg and cathepsin L inhibitor 30 mg/Kg). Intraperetoneal injections were given on day 11, day 14, and day 17.

[4] abbreviates: cathepsin inhibitor 30 mg/Kg + doxorubicin 1.5 mg/Kg.

This is an account of results in patent publication US20090312277A1, “Compositions And Methods For Reversing Or Preventing Resistance Of A Cancer Cell To A Cytotoxic Agent” (priority 2004, published 2009).

Peptide text beside a SMILES is read from it. * marks the point of attachment. Cbz = O=C(OCc1ccccc1)*

T1 sequence (P07711 114-333, species assumed): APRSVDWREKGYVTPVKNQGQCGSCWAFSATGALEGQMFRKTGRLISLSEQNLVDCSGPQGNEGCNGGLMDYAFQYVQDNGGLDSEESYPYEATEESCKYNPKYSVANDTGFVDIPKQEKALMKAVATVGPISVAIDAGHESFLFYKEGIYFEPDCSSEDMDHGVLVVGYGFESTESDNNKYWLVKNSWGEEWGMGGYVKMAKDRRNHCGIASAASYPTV

On to `COc1cc([C@@H]2c3cc4c(cc3[C@@H](O[C@@H]3O[C@@H]5CO[C@@H](C)O[C@H]5[C@H](O)[C@H]3O)[C@H]3COC(=O)[C@H]23)OCO4)cc(OC)c1O` [etoposide], for which, in data set [1], the viability at 100 µM is ~10%, the viability at 10 µM was ~70%, the viability at 1 µM is ~90% and the viability at 0.1 µM is ~95%.

Regarding `CC(=O)N[C@@H](CSC(=O)[C@]1([C@@H](O)C(C)C)NC(=O)[C@H](C)[C@@H]1O)C(=O)O` [lactacystin, Lactacystin], the “cathepsin L activity (arbitrary units) in presence of inhibitor” value (shortened to “cathepsin L activity … of inhibitor”) at Purified cathepsin L was determined as 4.25e+5 AU.

Consider `CC[C@]1(O)C[C@@H]2CN(CCc3c([nH]c4ccccc34)[C@@](C(=O)OC)(c3cc4c(cc3OC)N(C)[C@H]3[C@@](O)(C(=O)OC)[C@H](OC(C)=O)[C@]5(CC)C=CCN6CC[C@]43[C@@H]65)C2)C1` [vinblastine], for which the results for the IC50 with SKN-SH/R cells and in the data set with SKN-SH wild type cells were ~5620 nM and ~100 nM, respectively.

On to `CC(C)C[C@H](NC(=O)OCc1ccccc1)C(=O)NCC(=O)CNC(=O)[C@H](CC(C)C)NC(=O)OCc1ccccc1` [cathepsin K inhibitor, 1,3-Bis(N-CBZ-Leu-NH)-2-propanonel,3 -Di(N-carbonbenzoyloxy-L-leucyl)amino acetone], for which, on Purified cathepsin L, the “cathepsin L activity … of inhibitor” value came to 1e+5 AU.

Turning to `CCCNC(=O)[C@H]1O[C@@H]1C(=O)N[C@H](C(=O)N1CCC[C@H]1C(=O)O)[C@@H](C)CC` (relative stereo) [cathepsin B inhibitor], the “cathepsin L activity … of inhibitor” value on Purified cathepsin L turned out to be 3.5e+5 AU.

For the compound `O=P1(N(CCCl)CCCl)NCCCO1` (centres unmarked) [cyclophosphamide], in data set [1], the viability at 100 µM was ~70%, the viability at 10 µM is ~70%, the viability at 1 µM was ~80% and the viability at 0.1 µM was ~95%.

With `O=C1c2c(O)ccc(O)c2C(=O)c2c(NCCNCCO)ccc(NCCNCCO)c21` [mitoxantrone], in data set [1], the viability at 1 µM is ~5%, the viability at 0.1 µM was ~10% and the viability at 0.01 µM was ~40%.

Take “siRNA: human cathepsin L siRNA based on nucleotides 91-111 of the cathepsin L cDNA (SEQ ID NO: 2), synthesized by Dharmacon (UUCACCUUCCGCUACGUGUUG; listed as RNA, chemistry not given here; listed as Homo sapiens)”: the “cathepsin L expression (Western blot), siRNA alone” value in the data set on cathepsin L (Saos2-R cells transfected with siRNA) is given as “completely diminished”. In addition, the “cathepsin L expression (Western blot), siRNA and doxorubicin” value in the data set on cathepsin L (Saos2-R cells transfected with siRNA and treated with doxorubicin 10^−5 M) is “completely diminished”. The “inhibition of cell proliferation, combination of siRNA and doxorubicin” value in data set [2] (doxorubicin 10^−5 M) was ~90%. Further, in data set [2] (doxorubicin 10^−5 M for 48 hours, untreated 1.6e+6 AU), the “cell number, in combination with doxorubicin” value is given as 1.5e+5 AU. In data set [2] (untreated 1.6e+6 AU), the “cell number, siRNA transfection alone” value was found to be 8.0e+5 AU.

As for `CC(C)CC(NC(=O)C(Cc1ccccc1)NC(=O)OCc1ccccc1)C(=O)C=O.O` (stereo not drawn) [cathepsin S inhibitor, Z-Phe-Leu-COCHO.H2O], the “cathepsin L activity … of inhibitor” value at Purified cathepsin L is 3e+5 AU.

As to `N[C@@H](Cc1ccc(N(CCCl)CCCl)cc1)C(=O)O` [melphalan], in data set [1], the viability at 1 µM was ~0%, the viability at 0.1 µM was ~30% and the viability at 0.01 µM is ~60%.

On to `O=C[C@H](Cc1ccc(O)cc1)NC(=O)[C@H](Cc1ccccc1)NC(=O)OCc1ccccc1` [iCL, Z-Phe-Tyr-aldehyde] (Cbz-Phe-Tyr-aldehyde), for which, in data set [3] (setting [4]), the “tumor volume reduction at day 27 greater than doxorubicin alone, co-administered with doxorubicin” value is reported as “about 94%” and the “tumor volume reduction at day 27 greater than the control, co-administered with doxorubicin” value is recorded as “about 95%”. In addition, the “tumor volume reduction at day 27 greater than the control, inhibitor alone” value in data set [3] (cathepsin inhibitor alone 30 mg/Kg) is listed as “about 60%”. In addition, the “tumor volume reduction at day 27 greater than doxorubicin, inhibitor alone” value in data set [3] (cathepsin inhibitor alone 30 mg/Kg vs doxorubicin 1.5 mg/Kg) is “about 50%”. In data set [3] (nude mice, i.p. on day 11, 14, 17, Dox 1.5 mg/Kg+iCL 30 mg/Kg), the “average tumor volume on day 27, combination with doxorubicin” value is “approximately 100 mm^3”. For the same compound, in data set [3] (nude mice, i.p. on day 11, 14, 17, doxorubicin alone 1.5 mg/Kg or iCL alone 30 mg/Kg), the “average tumor volume on day 27, single agent” value is recorded as “approximately 800 mm^3”.

Turning to `CC/C(=C(\c1ccccc1)c1ccc(OCCN(C)C)cc1)c1ccccc1` [tamoxifen], in data set [1], the viability at 10 µM is ~0%, the viability at 1 µM is ~60%, the viability at 0.1 µM is ~60% and the viability at 0.01 µM is ~75%.
